Experimental data from patent US20250009742A1 (priority 2021, published 2025).
Like-named read-outs stand apart in the source and are kept apart here.

Assays:
intracellular HBV DNA = test: Real-time PCR for intracellular HBV DNA in HepAD38 cells; assay type: cell-based; conditions: 65 hours treatment
Protein = Protein (Hepatitis B virus genotype D subtype ayw, UniProt P03146); test: Protein inhibition rate / EC50 (Table 1, no method described); assay type: biochemical; conditions: for inhibition at 3 µM: @3 μM (footnote *)
[1] = Cell viability assay (EZ-Cytox), cytotoxicity; assay type: cell-based; conditions: human, HepAD38 cells; for viability at 65 h, 100 µM: read-out: Cytotoxicity % Livability (@100 μM)
Description: HepAD38 cells were cultured for 2 days in Dulbecco's Modified Eagle's medium (Welgene, LM001-05) supplemented with 10% FBS without tetracycline. […] After 65 hours of treatment, viability was measured using EZ-Cytox cell viability assay kit (Daeil Lab Service) according to the manufacturer's instructions. The absorbance was measured at 450 nm using a spectrophotometer (Spark, Tecan).

[2] = Hepatitis B virus, HePAD38, 65 h

Chain of Protein (P03146 whole entry): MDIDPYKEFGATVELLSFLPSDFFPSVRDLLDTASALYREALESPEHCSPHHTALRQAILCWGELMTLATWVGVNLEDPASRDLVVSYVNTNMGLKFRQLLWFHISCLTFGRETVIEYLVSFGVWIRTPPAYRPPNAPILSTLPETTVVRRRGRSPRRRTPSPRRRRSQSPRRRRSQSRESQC

Compound | IC50 (intracellular HBV DNA; [2]) | EC50 (Protein) | inhibition at 30 µM (Protein) | CC50 at 65 h [1] | viability at 65 h, 100 µM [1] | inhibition at 3 µM (Protein) | IC50 (intracellular HBV DNA; read-out: IC50)
O=C(Nc1ccc(F)c(Cl)c1)N(Cc1n[nH]c2c1CCCC2)c1ccc(=O)[nH]c1 [Example 14, 3-(3-chloro-4-fluorophenyl)-1-(6-oxo-1,6-dihydropyridin-3-yl)-1-((4,5,6,7-tetrahydro-1H-indazol-3-yl)methyl)urea] | 0.11 µM | 7.3 µM | 14% | > 100 µM | 95.4% |  | 
O=C(Nc1ccc(F)c(Cl)c1)N(Cc1n[nH]c2c1CCCC2)c1cc[nH]c(=O)c1 [Example 15, 3-(3-chloro-4-fluorophenyl)-1-(2-oxo-1,2-dihydropyridin-4-yl)-1-((4,5,6,7-tetrahydro-1H-indazol-3-yl)methyl)urea] | 0.31 µM | 1.4 µM | 64.7% | > 100 µM | 84% |  | 
COC(=O)c1ccc(N(Cc2n[nH]c3c2CCCC3)C(=O)Nc2ccc(F)c(Cl)c2)cc1 [Example 31, methyl 4-(3-(3-chloro-4-fluorophenyl)-1-((4,5,6,7-tetrahydro-1H-indazol-3-yl)methyl)ureido)benzoate] | 0.41 µM | 3.3 µM | 90.4% | > 100 µM | 91.2% |  | 
COc1ccc(N(Cc2n[nH]c3c2CCCC3)C(=O)Nc2ccc(F)c(Cl)c2)cc1 [Example 32, 3-(3-chloro-4-fluorophenyl)-1-(4-methoxyphenyl)-1-((4,5,6,7-tetrahydro-1H-indazol-3-yl)methyl)urea] | 0.0099 µM | 9.4 µM | 5% | 81.4 µM | 4.1% |  | 
COc1ccc(N(Cc2n[nH]c3c2CN(C(C)=O)CC3)C(=O)Nc2ccc(F)c(Cl)c2)cc1 [Example 33, 1-((5-acetyl-4,5,6,7-tetrahydro-1H-pyrazolo[4,3-c]pyridin-3-yl)methyl)-3-(3-chloro-4-fluorophenyl)-1-(4-methoxyphenyl)urea] | > 1.1 µM |  | 77.8% |  | 96% |  | 
COc1ccc(N(Cc2cc[nH]n2)C(=O)Nc2ccc(F)c(Cl)c2)cc1 [Example 34, 1-((1H-pyrazol-3-yl)methyl)-3-(3-chloro-4-fluorophenyl)-1-(4-methoxyphenyl)urea] | > 1.1 µM |  | 55.2% |  | 92.9% |  | 
COc1ccc(N(Cc2ccn(C)n2)C(=O)Nc2ccc(F)c(Cl)c2)cc1 [Example 35, 3-(3-chloro-4-fluorophenyl)-1-(4-methoxyphenyl)-1-((1-methyl-1H-pyrazol-3-yl)methyl)urea] | > 1.1 µM |  | 33.7% |  | 90.5% |  | 
COc1ccc(N(Cc2nn(C)c3c2CCCC3)C(=O)Nc2ccc(F)c(Cl)c2)cc1 [Example 36, 3-(3-chloro-4-fluorophenyl)-1-(4-methoxyphenyl)-1-((1-methyl-4,5,6,7-tetrahydro-1H-indazol-3-yl)methyl)urea] | 0.036 µM | 9.2 µM | 91.6% | > 100 µM | 100% |  | 
COc1ccc(N(Cc2n[nH]c3c2CN(C)CC3)C(=O)Nc2ccc(F)c(Cl)c2)cc1 [Example 37, 3-(3-chloro-4-fluorophenyl)-1-(4-methoxyphenyl)-1-((5-methyl-4,5,6,7-tetrahydro-1H-pyrazolo[4,3-c]pyridin-3-yl)methyl)urea] | > 1.1 µM |  | 28.3% |  | 22.4% |  | 
COc1ccc(N(Cc2n[nH]c3c2COCC3)C(=O)Nc2ccc(F)c(Cl)c2)cc1 [Example 38, 3-(3-chloro-4-fluorophenyl)-1-(4-methoxyphenyl)-1-((1,4,6,7-tetrahydropyrano[4,3-c]pyrazol-3-yl)methyl)urea] | 0.018 µM | 1.6 µM | 80% | > 100 µM | 104% |  | 
COc1ccc(N(Cc2n[nH]c3c2CC(F)(F)CC3)C(=O)Nc2ccc(F)c(Cl)c2)cn1 [Example 40, 3-(3-chloro-4-fluorophenyl)-1-((5,5-difluoro-4,5,6,7-tetrahydro-1H-indazol-3-yl)methyl)-1-(6-methoxypyridin-3-yl)urea] | 0.016 µM | 3.8 µM | 99.5% | 82.5 µM | 4.6% |  | 
COc1ccc(N(Cc2n[nH]c3c2CCC3)C(=O)Nc2ccc(F)c(Cl)c2)cn1 [Example 41, 3-(3-chloro-4-fluorophenyl)-1-(6-methoxypyridin-3-yl)-1-((1,4,5,6-tetrahydrocyclopenta[c]pyrazol-3-yl)methyl)urea] | 0.018 µM | 2.6 µM |  | > 100 µM | 97.8% | 59% | 
COc1ccc(N(Cc2n[nH]c3c2CCCC3)C(=O)Nc2ccc(F)c(Cl)c2)cn1 [Example 42, 3-(3-chloro-4-fluorophenyl)-1-(6-methoxypyridin-3-yl)-1-((4,5,6,7-tetrahydro-1H-indazol-3-yl)methyl)urea] | 0.037 µM | 4.3 µM |  | > 100 µM | 99.5% | 13% | 
COc1ccc(N(Cc2n[nH]c3ccccc23)C(=O)Nc2ccc(F)c(Cl)c2)cn1 [Example 43, 1-((1H-indazol-3-yl)methyl)-3-(3-chloro-4-fluorophenyl)-1-(6-methoxypyridin-3-yl)urea] | 0.043 µM | 6.06 µM | 96.7% | > 100 µM | 92% |  | 
COc1ccc(N(Cc2n[nH]c3c2CC(CO)CC3)C(=O)Nc2ccc(F)c(Cl)c2)cn1 (stereo not drawn) [Example 44, 3-(3-chloro-4-fluorophenyl)-1-((5-(hydroxymethyl)-4,5,6,7-tetrahydro-1H-indazol-3-yl)methyl)-1-(6-methoxypyridin-3-yl)urea] | > 1.1 µM |  | 58% | > 100 µM | 100% |  | 
COc1ccc(N(Cc2n[nH]c3c2CSCC3)C(=O)Nc2ccc(F)c(Cl)c2)cn1 [Example 45, 3-(3-chloro-4-fluorophenyl)-1-(6-methoxypyridin-3-yl)-1-((1,4,6,7-tetrahydrothiopyrano[4,3-c]pyrazol-3-yl)methyl)urea] | 0.012 µM | 3.3 µM | 95.6% | > 50 µM | 3.3% |  | 
COc1ccc(N(Cc2n[nH]c3c2CCC3)C(=O)Nc2ccc(F)c(Cl)c2)cc1 [Example 46, 3-(3-chloro-4-fluorophenyl)-1-(4-methoxyphenyl)-1-((1,4,5,6-tetrahydrocyclopenta[c]pyrazol-3-yl)methyl)urea] | 0.0094 µM | 4.3 µM | 92.8% | > 100 µM | 100% |  | 
COc1ccc(N(Cc2n[nH]c3c2CC(C)(C)CC3)C(=O)Nc2ccc(F)c(Cl)c2)cn1 [Example 47, 3-(3-chloro-4-fluorophenyl)-1-((5,5-dimethyl-4,5,6,7-tetrahydro-1H-indazol-3-yl)methyl)-1-(6-methoxypyridin-3-yl)urea] | 0.99 µM | 9.6 µM | 95.3% | > 100 µM | 50.7% |  | 
COc1ccc(N(Cc2n[nH]c3c2CC(O)CC3)C(=O)Nc2ccc(F)c(Cl)c2)cn1 (stereo not drawn) [Example 48, 3-(3-chloro-4-fluorophenyl)-1-((5-hydroxy-4,5,6,7-tetrahydro-1H-indazol-3-yl)methyl)-1-(6-methoxypyridin-3-yl)urea] | 1.1 µM | 6.4 µM | 90% | > 100 µM |  |  | 
COc1ccc(N(Cc2n[nH]c3c2CS(=O)(=O)CC3)C(=O)Nc2ccc(F)c(Cl)c2)cn1 [Example 49, 3-(3-chloro-4-fluorophenyl)-1-((5,5-dioxido-1,4,6,7-tetrahydrothiopyrano[4,3-c]pyrazol-3-yl)methyl)-1-(6-methoxypyridin-3-yl)urea] | > 1.1 µM |  | 72% | > 100 µM |  |  | 
COc1ccc(N(Cc2cc(C)[nH]n2)C(=O)Nc2ccc(F)c(Cl)c2)cn1 [Example 50, 3-(3-chloro-4-fluorophenyl)-1-(6-methoxypyridin-3-yl)-1-((5-methyl-1H-pyrazol-3-yl)methyl)urea] | 0.26 µM | 3.8 µM | 94.3% | > 100 µM |  |  | 
COc1ccc(N(Cc2cc(C)nn2C)C(=O)Nc2ccc(F)c(Cl)c2)cc1 [Example 108, 3-(3-chloro-4-fluorophenyl)-1-((1,3-dimethyl-1H-pyrazol-5-yl)methyl)-1-(4-methoxyphenyl)urea] | 0.36 µM | 5.3 µM | 89.9% |  |  |  | 
COc1ccc(N(Cc2cn(C)nc2C)C(=O)Nc2ccc(F)c(Cl)c2)cc1 [Example 159, 3-(3-chloro-4-fluorophenyl)-1-((1,3-dimethyl-1H-pyrazol-4-yl)methyl)-1-(4-methoxyphenyl)urea] | > 3.3 µM |  | 4% |  |  |  | 
COc1ncc(N(Cc2cc(C(F)(F)F)[nH]n2)C(=O)Nc2cccc(C(F)(F)F)n2)cn1 [Example 225, 1-(2-methoxypyrimidin-5-yl)-1-((5-(trifluoromethyl)-1H-pyrazol-3-yl)methyl)-3-(6-(trifluoromethyl)pyridin-2-yl)urea] | 0.21 µM |  |  | > 100 µM | 105% |  | 
O=C(Nc1cc(F)c(F)c(F)c1)c1ccc(F)c(S(=O)(=O)N2CCC(O)CC2)c1 [NVR, reference compound] |  | 3.6 µM |  |  |  |  | 0.34 µM
